Reference: patent publication US9844506B2, “Compositions and methods for affecting mood states” (priority 2013, dated 2017)

Legend:
[1] = Interaction of nitric oxide with carriers, weight gain on bubbling NO gas (Example 2); assay type: physicochemical; details: NO bubbled 40 hr, 25° C.
Procedure: In this example, six experiments were carried out to investigate the interaction of nitric oxide with three carriers (HNC 157-62, HNC 157-65, and HNC 157-69) as well as with 1,3-propanediol, using experimental conditions similar to that described for Example 1. In addition three experiments were performed to prepare carriers containing 800 ppm and 500 ppm nitric oxide. HNC 157-62 was formed of 65% Phospholipon-90G (American Lecithin Company), 18% isopropyl palmitate (Kraft Chemicals), 8% capric caprylic triglycerides (RITA Corp.), and 9% propanediol (Dupont). HNC 157-65 was formed of 65% Phospholipon-90G, 13% isopropyl palmitate, 14% capric caprylic triglycerides, 3% propanediol, and 5% dimethyl isosorbide (Croda). HNC 157-69 was formed from 65% Phospholipon-90G, 16% isopropyl palmitate, and 19% capric caprylic triglycerides.
The compositions were generally prepared as follows. Isopropyl palmitate, capric caprylic triglyceride, propanediol (for HNC 157-62 and HNC 157-65), and dimethyl isosorbide (for HNC 157-65) were mixed together and warmed to 40° C. Phospholipon-90G was then gradually added to this liquid mixture by mixing it. Phospholipon-90G is typically received as individual pellets, and is mixed into the solution until fully dissolved. The mixture was subsequently filtered through a sieve to remove any undissolved Phospholipon-90G. […]

[2] = system: cutaneous vascular system; assay: Laser Doppler circulation in five human subjects, 10,000 ppm NO formulation (Example 8); assay type: in vivo; details: positive control formulation containing 0.1% methyl nicotinate
Excerpt: This example illustrates delivery of nitric oxide formulations to five human subjects, using procedures and formulations similar to those discussed in Example 5. Each person served as their own control for the testing. A Moor Instruments Laser Doppler was used to determine circulation. […] The formulations used produce positive, almost immediate results when applied to the skin which, in these studies, was manifested by vasodilatation of the cutaneous vascular system.
For each subject, the following creams were applied: a negative control formulation (containing no NO), 0.010 gram of a 10,000 ppm NO formulation, 0.020 gram of a 10,000 ppm NO formulation, and a positive control formulation containing 0.1% methyl nicotinate. The formulations were prepared using procedures similar to those discussed in Example 1.

[3] = system: microcirculation of the skin; assay: Laser Doppler capillary blood flow in human female subjects, 10,000 ppm NO in closed chamber (Example 5); assay type: in vivo; details: applied to skin at 1/10% in alcohol
Excerpt: The formulation used in these studies contained nitric oxide dispersed in a lipid matrix. […] Nitric oxide is a very rapid acting molecule, and these studies used a system that employed laser Doppler with a covered chamber. The formulation was placed into the chamber and then attached to the skin by an adhesive layer on the covering. This provided a stable measuring device as determined by multiple normal evaluations of the capillary blood flow without treatment of nitric oxide.
A known positive control, methyl nicotinate, was applied to the skin at a concentration of 1/10% in alcohol. […] The vascular dynamics are such that when the blood vessels dilate physical parameters follow Bernoulli's law. This states that as one increases the diameter of a tube containing a liquid to flow will increase but the pressure and the speed of the liquid will decrease. The laser Doppler device accurately measured these parameters.
The test product was labeled as 10,000 ppm NO (nitric oxide). The study participants had 100 mg of the test product applied in a closed Hilltop chamber on the forearm. […]
A Moor Instruments DRT4 Laser Doppler Blood Flow Monitor (Devon, England) was used in these studies. The laser Doppler technique measured blood flow in the microcapillaries of the skin that are close to the skin surface and the blood flow in underlying arterioles and venules that help to regulate skin temperature. […]

| SMILES | % Wt. gain [1] [%] | Wt. Gain [1] [g] | vasodilatation versus control untreated skin [2] | laser Doppler response to positive control [3] |
| --- | --- | --- | --- | --- |
| OCCCO [1,3-Propanediol, 1,3-propanediol] | 0.09 | 0.16 |  |  |
| COC(=O)c1cccnc1 [methyl nicotinate] |  |  | vasodilatation was observed | rapid response typical of the vasodilator |
